Reference: US20240059703A1 (AMGEN INC., priority 2021, published 2024)

What was measured:
KRAS G12C = KRAS G12C (Homo sapiens (Human), UniProt P01116, C118A/G12C); assay: 2 h coupled exchange assay; format: biochemical; conditions: Avg 2 h Coupled exchange IC50, 2 h compound pre-incubation, SOS-mediated nucleotide exchange
Description: The term “2 h coupled exchange assay” or “20 h coupled exchange assay” as used herein refers to the assay described in the Section entitled “BIOLOGICAL EVALUATION.”

[1] = tested on: MIA PaCa-2 (human pancreatic carcinoma) cells; assay: Cell Viability Assay (CellTiter-Glo), MIA PaCa-2; format: cell-based
Description: (§1) Serially-diluted compound or DMSO was added to the cells, and plates were incubated at 37° C., 5% CO2 for 72 h. Cell viability was measured using a CellTiter-Glo® Luminescent Cell Viability Assay kit (Promega) according to the manufacturer's protocol. The luminescence signal of treated samples was normalized to DMSO control, and data were analyzed using a 4-parameter logistic model to calculate IC50 values.

[2] = tested on: A549 (human lung carcinoma) cells; assay: Cell Viability Assay (CellTiter-Glo), A549; format: cell-based
Description: as §1, with “MIA PaCa-2 (human pancreatic carcinoma; ATCC CRL-1420) or A549 (human lung carcinoma; ATCC CCL-185) cells were cultured in RPMI 1640 medium containing 10% fetal bovine serum and 1× penicillin/streptomycin/L-glutamine. Cells were seeded in 384-well plates at a density of 1.67E+04 cells/mL and incubated at 37° C., 5% CO2, overnight. Serially-diluted” for “Serially-diluted”

KRAS G12C, sequence (P01116 other isoform, or with tags, fused parts or gaps G12C/C118A): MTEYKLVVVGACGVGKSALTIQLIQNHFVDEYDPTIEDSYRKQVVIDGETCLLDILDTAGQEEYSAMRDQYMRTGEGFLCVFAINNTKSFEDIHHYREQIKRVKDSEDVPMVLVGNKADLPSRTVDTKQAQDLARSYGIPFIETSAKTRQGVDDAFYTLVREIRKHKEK

Row | IC50 (KRAS G12C) [nM] | IC50 ([1]; Homo sapiens, MIA PaCa-2, 72 h) [nM] | IC50 ([2]; Homo sapiens, A549, 72 h) [nM] | IC50 ([1]; 72 h) [nM] | IC50 ([2]; 72 h) [nM] | Structure (SMILES)
1 | 137 | > 5000 | > 5000 | – | – | C=CC(=O)N1CC2(CCN(c3nc4c(c(-c5cc(O)cc6nccnc56)c3C#N)C[C@H]3C[C@@H]4C3(C)C)C2)C1 (single isomer, unassigned) [Example 12-38]
2 | 26 | 82 | > 5000 | – | – | C=CC(=O)N1CC2(CCN(c3nc4c(c(-c5cc(O)cc(Cl)c5C)c3C)COC(C)(C)C4)C2)C1 (single isomer, unassigned) [Example 12-43, (M)-1-(6-(4-(3-chloro-5-hydroxy-2-methylphenyl)-3,7,7-trimethyl-7,8-dihydro-5H-pyrano[4,3-b]pyridin-2-yl)-2,6-diazaspiro[3.4]octan-2-yl)prop-2-en-1-one]
3 | 26 | 180 | > 5000 | – | – | C=CC(=O)N1CC2(CCN(c3nc4c(c(-c5c(C)ccc6cnn(C)c56)c3C#N)CC(C)(C)C4)C2)C1 (single isomer, unassigned) [Example 13-18, (P)-4-(1,6-dimethyl-1H-indazol-7-yl)-6,6-dimethyl-2-(2-(2-propenoyl)-2,6-diazaspiro[3.4]octan-6-yl)-6,7-dihydro-5H-cyclopenta[b]pyridine-3-carbonitrile]
4 | 16 | 143 | > 5000 | – | – | C=CC(=O)N1CC2(CCN(c3nc4c(c(-c5cc(O)cc6ccccc56)c3C#N)COC(C)(C)C4)C2)C1 (single isomer, unassigned) [Example 13-43, (P)-4-(3-hydroxy-1-naphthalenyl)-7,7-dimethyl-2-(2-(2-propenoyl)-2,6-diazaspiro[3.4]octan-6-yl)-7,8-dihydro-5H-pyrano[4,3-b]pyridine-3-carbonitrile]
5 | 63 | 146 | > 5000 | – | – | C=CC(=O)N1CC2(CCN(c3nc4c(c(-c5c(C)ccc6cnn(C)c56)c3C#N)COC(C)(C)C4)C2)C1 (single isomer, unassigned) [Example 13-60, (P)-4-(1,6-dimethyl-1H-indazol-7-yl)-7,7-dimethyl-2-(2-(2-propenoyl)-2,6-diazaspiro[3.4]octan-6-yl)-7,8-dihydro-5H-pyrano[4,3-b]pyridine-3-carbonitrile]
6 | 27 | 217 | 3230 | – | – | C=CC(=O)N1CC2(CCN(c3nc4c(c(-c5cc(O)cc6ccccc56)c3C#N)CC(C)(C)C4)C2)C1 (single isomer, unassigned) [Example 13-69, (P)-4-(3-hydroxy-1-naphthalenyl)-6,6-dimethyl-2-(2-(2-propenoyl)-2,6-diazaspiro[3.4]octan-6-yl)-6,7-dihydro-5H-cyclopenta[b]pyridine-3-carbonitrile]
7 | 76 | – | > 5000 | > 5000 | – | C=CC(=O)N1CC2(CCN(c3nc4c(c(-c5cc(O)c(F)c6ccccc56)c3C#N)CC[C@@H]3C[C@H]43)C2)C1 (single isomer, unassigned) [Example 13-74]
8 | 40 | – | – | 1190 | 3260 | C=CC(=O)N1CC2(CCN(c3nc4c(c(-c5cc(O)c(F)c6ccccc56)c3C#N)CC[C@@H]3C[C@H]43)C2)C1 (single isomer, unassigned) [Example 13-76]
9 | 76 | 842 | > 5000 | – | – | C=CC(=O)N1CC2(CCN(c3nc4c(c(-c5cc(O)c(F)c6ccccc56)c3C#N)COC(C)(C)C4)C2)C1 (single isomer, unassigned) [Example 13-78, (P)-4-(4-fluoro-3-hydroxy-1-naphthalenyl)-7,7-dimethyl-2-(2-(2-propenoyl)-2,6-diazaspiro[3.4]octan-6-yl)-7,8-dihydro-5H-pyrano[4,3-b]pyridine-3-carbonitrile]
10 | 13 | 9 | > 5000 | – | – | C=CC(=O)N1CC2(CCN(c3nc4c(c(-c5c(C)c(C)cc6cnn(C)c56)c3C#N)COC(C)(C)C4)C2)C1 (single isomer, unassigned) [Example 13-92, (P)-7,7-dimethyl-2-(2-(2-propenoyl)-2,6-diazaspiro[3.4]octan-6-yl)-4-(1,5,6-trimethyl-1H-indazol-7-yl)-7,8-dihydro-5H-pyrano[4,3-b]pyridine-3-carbonitrile]
11 | 78 | 831 | > 5000 | – | – | C=CC(=O)N1CC2(CCN(c3nc4c(c(-c5c(C)ccc6cnn(C)c56)c3C#N)C[C@H]3C[C@@H]4C3(C)C)C2)C1 (single isomer, unassigned) [Example 13-106]
12 | 12 | 9 | > 5000 | – | – | C=CC(=O)N1CC2(CCN(c3nc4c(c(-c5c(C)ccc6[nH]ncc56)c3C#N)C[C@H]3C[C@@H]4C3(C)C)C2)C1 (single isomer, unassigned) [Example 13-115]
13 | 72 | 279 | > 5000 | – | – | C=CC(=O)N1CC2(CCN(c3nc4c(c(-c5c(C)ccc6cnn(C)c56)c3C#N)C[C@H]3C[C@@H]4C3)C2)C1 (single isomer, unassigned) [Example 13-118]
14 | 299 | 1080 | > 5000 | – | – | C=CC(=O)N1CC2(CCN(c3nc4c(c(-c5c(C)ccc6cnn(C)c56)c3C#N)CO[C@@H](C3CC3)C4)C2)C1 (single isomer, unassigned) [Example 13-122]

Continued, compound first:

Row | Structure (SMILES) | IC50 (KRAS G12C) [nM] | IC50 ([1]; Homo sapiens, MIA PaCa-2, 72 h) [nM] | IC50 ([2]; Homo sapiens, A549, 72 h) [nM] | IC50 ([1]; 72 h) [nM] | IC50 ([2]; 72 h) [nM]
15 | C=CC(=O)N1CC2(CCN(c3cc4c(c(-c5cc(O)cc6ccccc56)c3C#N)OCCC4)C2)C1 (single isomer, unassigned) [Example 2-54, (M)-8-(3-hydroxy-1-naphthalenyl)-6-(2-(2-propenoyl)-2,6-diazaspiro[3.4]octan-6-yl)-3,4-dihydro-2H-chromene-7-carbonitrile] | 28 | 56 | > 5000 | – | –
16 | C=CC(=O)N1CC2(CCN(c3nc4ccccc4c(-c4c(C)ccc5[nH]ncc45)c3C)[C@H]2C)C1 (single isomer, unassigned) [Example 2-57] | 106 | 921 | > 5000 | – | –
17 | C=CC(=O)N1CC2(CCN(c3nc4cc(F)ccc4c(-c4c(C)ccc5[nH]ncc45)c3C)[C@H]2C)C1 (single isomer, unassigned) [Example 2-58] | 282 | 2080 | > 5000 | – | –
18 | C=CC(=O)N1CC2(CCN(c3nc4cc(F)ccc4c(-c4c(C)ccc5[nH]ncc45)c3C)[C@H]2C)C1 (single isomer, unassigned) [Example 2-61] | 134 | – | – | 1320 | > 5000
19 | C=CC(=O)N1CC2(CCN(c3nc4c(c(-c5cc(O)ccc5C)c3C#N)C[C@H]3C[C@@H]4C3(C)C)C2)C1 (single isomer, unassigned) [Example 2-69] | 15 | 221 | > 5000 | – | –
20 | C=CC(=O)N1CC2(CCN(c3nc4c(c(-c5cc(O)ccc5Cl)c3C#N)C[C@H]3C[C@@H]4C3(C)C)C2)C1 (single isomer, unassigned) [Example 2-74] | 21 | 202 | > 5000 | – | –
21 | C=CC(=O)N1CC2(CCN(c3nc4c(c(-c5cc(O)ccc5C)c3Cl)COC(C)(C)C4)C2)C1 (single isomer, unassigned) [Example 2-81, (P)-1-(6-(3-chloro-4-(5-hydroxy-2-methylphenyl)-7,7-dimethyl-7,8-dihydro-5H-pyrano[4,3-b]pyridin-2-yl)-2,6-diazaspiro[3,4]octan-2-yl)-2-propen-1-one] | 53 | 58 | > 5000 | – | –
22 | C=CC(=O)N1CC2(CCN(c3cc4c(c(-c5c(C)ccc6[nH]ncc56)c3C#N)COCC4)C2)C1 (single isomer, unassigned) [Example 2-100, (P)-8-(5-methyl-1H-indazol-4-yl)-6-(2-(2-propenoyl)-2,6-diazaspiro[3.4]octan-6-yl)-3,4-dihydro-1H-2-benzopyran-7-carbonitrile] | 33 | 25 | > 5000 | – | –
23 | C=CC(=O)N1CC2(CCN(c3nc4c(c(-c5c(C)c(Cl)cc6[nH]ncc56)c3Cl)COC(C)(C)C4)C2)C1 (single isomer, unassigned) [Example 2-109, (P)-1-(6-(3-chloro-4-(6-chloro-5-methyl-1H-indazol-4-yl)-7,7-dimethyl-7,8-dihydro-5H-pyrano[4,3-b]pyridin-2-yl)-2,6-diazaspiro[3.4]octan-2-yl)-2-propen-1-one] | 23 | 3 | > 5000 | – | –
24 | C=CC(=O)N1CC2(CCN(c3nc(-c4ccccc4F)c4c(n3)N([C@H](CC(=O)NC)CC(C)C)CC4)C2)C1 (single isomer, unassigned) [Example 9] | 691 | 1690 | > 5000 | – | –
25 | C=CC(=O)N1CC2(CCN(c3nc(-c4ccccc4F)c4c(n3)N([C@H](CC(=O)NC)CC(C)C)CCC4)C2)C1 (single isomer, unassigned) [Example 10] | 1680 | 3240 | > 5000 | – | –
26 | C=CC(=O)N1CC2(CCN(c3nc(-c4ccccc4F)c4ccn([C@H](CC(=O)NC)CC(C)C)c4n3)C2)C1 (single isomer, unassigned) [Example 11] | 1940 | 1160 | 12600 | – | –
